Assay [1] has as its target T1, Transient receptor potential cation channel subfamily A member 1 (Mus musculus, UniProt Q8BLA8). Nature of the assay: Antagonist activity at mouse TRPA1 channel expressed in CHO cells assessed as blockade of agonist-induced whole cell conductance by electrophysiology. Type of assay: functional, cell-based.
Assay [2] concerns the target T1, Transient receptor potential cation channel subfamily A member 1. Nature of the assay: Antagonist activity at mouse TRPA1 channel expressed in CHO cells assessed as inhibition of cinnamaldehyde-induced intracellular calcium influx. On the technique in general: Calcium flux is commonly read through the fluorescence of an indicator in the cells.
The target of assay [3] is T2, Transient receptor potential cation channel subfamily A member 1 (Homo sapiens, UniProt O75762). In words: Antagonist activity at human TRPA1 channel expressed in CHO cells assessed as inhibition of cinnamaldehyde-induced intracellular calcium influx. Type of assay: functional, cell-based.
T2 sequence (O75762 whole entry): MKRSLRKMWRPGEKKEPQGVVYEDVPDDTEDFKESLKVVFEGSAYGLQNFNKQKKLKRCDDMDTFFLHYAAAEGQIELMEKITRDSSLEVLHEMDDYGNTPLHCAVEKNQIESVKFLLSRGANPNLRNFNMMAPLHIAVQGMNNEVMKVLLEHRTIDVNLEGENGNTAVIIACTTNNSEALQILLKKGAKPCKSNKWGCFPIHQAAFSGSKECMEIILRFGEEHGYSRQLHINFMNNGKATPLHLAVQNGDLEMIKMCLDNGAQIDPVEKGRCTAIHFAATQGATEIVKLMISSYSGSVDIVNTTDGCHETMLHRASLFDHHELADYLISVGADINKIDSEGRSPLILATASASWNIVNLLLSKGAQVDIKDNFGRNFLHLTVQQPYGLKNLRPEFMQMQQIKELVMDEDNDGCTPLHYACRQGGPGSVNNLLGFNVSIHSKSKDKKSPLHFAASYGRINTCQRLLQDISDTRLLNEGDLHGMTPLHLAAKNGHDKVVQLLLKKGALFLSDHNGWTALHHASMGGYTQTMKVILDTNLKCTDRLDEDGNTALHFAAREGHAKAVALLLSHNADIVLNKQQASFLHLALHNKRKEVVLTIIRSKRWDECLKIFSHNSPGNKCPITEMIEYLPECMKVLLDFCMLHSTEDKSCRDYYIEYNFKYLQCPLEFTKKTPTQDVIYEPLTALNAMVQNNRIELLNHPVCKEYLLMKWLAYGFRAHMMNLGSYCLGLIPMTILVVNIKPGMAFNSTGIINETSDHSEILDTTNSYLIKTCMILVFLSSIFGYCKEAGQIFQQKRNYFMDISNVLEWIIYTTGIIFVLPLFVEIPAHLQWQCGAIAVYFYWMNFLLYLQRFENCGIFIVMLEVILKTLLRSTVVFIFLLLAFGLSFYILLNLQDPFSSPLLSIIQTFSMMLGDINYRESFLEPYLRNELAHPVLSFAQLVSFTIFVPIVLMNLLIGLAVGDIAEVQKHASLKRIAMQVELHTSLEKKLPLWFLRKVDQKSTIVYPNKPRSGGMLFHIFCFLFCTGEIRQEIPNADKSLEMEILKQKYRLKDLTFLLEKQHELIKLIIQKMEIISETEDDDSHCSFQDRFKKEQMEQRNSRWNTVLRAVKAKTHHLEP
Assay [4] concerns the target T2, Transient receptor potential cation channel subfamily A member 1. Nature of the assay: Antagonist activity at human TRPA1 channel assessed as inhibition of allyl isothiocyanate-induced intracellular calcium influx. Type of assay: functional, cell-based.
In assay [5] the target is T1, Transient receptor potential cation channel subfamily A member 1. In words: Activation of mouse TRPA1 channel.
Assay [6] concerns the target T2, Transient receptor potential cation channel subfamily A member 1. In words: Antagonist activity at human TRPA1 channel assessed as inhibition of 4-hydroxy-2-nonenal-induced response. Type of assay: functional.
For assay [7] the target is unchanged. In words: Activation of human TRPA1 channel.
For assay [8], the target named is T3, Transient receptor potential cation channel subfamily M member 8 (Homo sapiens, UniProt Q7Z2W7). In words: Activation of TRPM8 channel.
T3 sequence (Q7Z2W7 whole entry): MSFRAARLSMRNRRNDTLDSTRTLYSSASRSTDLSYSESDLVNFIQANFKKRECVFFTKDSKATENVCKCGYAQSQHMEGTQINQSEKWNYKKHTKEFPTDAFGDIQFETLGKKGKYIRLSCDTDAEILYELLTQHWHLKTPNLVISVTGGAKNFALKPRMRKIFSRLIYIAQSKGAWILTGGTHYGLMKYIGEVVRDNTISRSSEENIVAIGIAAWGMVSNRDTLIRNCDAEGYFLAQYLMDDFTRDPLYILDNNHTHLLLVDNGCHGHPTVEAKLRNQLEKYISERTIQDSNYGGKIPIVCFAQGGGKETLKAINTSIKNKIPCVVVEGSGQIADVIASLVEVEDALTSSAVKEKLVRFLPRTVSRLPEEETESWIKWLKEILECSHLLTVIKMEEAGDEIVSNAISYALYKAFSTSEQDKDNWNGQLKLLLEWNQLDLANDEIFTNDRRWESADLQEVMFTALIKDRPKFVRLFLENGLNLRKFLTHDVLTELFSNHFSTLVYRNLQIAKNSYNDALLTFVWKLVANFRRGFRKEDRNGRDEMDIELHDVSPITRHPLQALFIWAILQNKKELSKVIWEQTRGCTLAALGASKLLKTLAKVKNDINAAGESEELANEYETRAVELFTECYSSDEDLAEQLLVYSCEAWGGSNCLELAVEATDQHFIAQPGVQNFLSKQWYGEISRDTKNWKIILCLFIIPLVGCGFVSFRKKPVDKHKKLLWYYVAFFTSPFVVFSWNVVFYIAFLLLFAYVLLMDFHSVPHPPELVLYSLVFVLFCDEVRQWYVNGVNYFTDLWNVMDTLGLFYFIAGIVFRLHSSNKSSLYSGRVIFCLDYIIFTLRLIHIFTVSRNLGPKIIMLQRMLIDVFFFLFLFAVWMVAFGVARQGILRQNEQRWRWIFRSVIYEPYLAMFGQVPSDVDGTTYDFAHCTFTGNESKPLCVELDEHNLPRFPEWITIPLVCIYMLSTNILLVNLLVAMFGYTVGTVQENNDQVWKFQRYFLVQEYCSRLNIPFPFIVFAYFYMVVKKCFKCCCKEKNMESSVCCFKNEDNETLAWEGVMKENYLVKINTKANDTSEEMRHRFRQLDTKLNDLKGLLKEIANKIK
The target in assay [9] is T2, Transient receptor potential cation channel subfamily A member 1. Nature of the assay: Agonist activity at human TRPA1 channel expressed in HEK293 cells assessed as increase in intracellular calcium influx. Type of assay: functional, cell-based.
For assay [10], the target named is T1, Transient receptor potential cation channel subfamily A member 1. Nature of the assay: Agonist activity at mouse TRPA1 channel expressed in HEK293 cells assessed as increase in intracellular calcium influx. Type of assay: functional, cell-based.
Assay [11] has the same target. In words: Agonist activity at TRPA1 channel in mouse dorsal root ganglion cells assessed as increase in intracellular calcium influx by radiometric Ca2+ imaging. Type of assay: functional, tissue-based.
The target of assay [12] is T2, Transient receptor potential cation channel subfamily A member 1. Nature of the assay: Agonist activity at human TRPA1 channel in HEK293 cells assessed as increase in intracellular calcium influx by radiometric Ca2+ imaging. Type of assay: functional, cell-based.
The target in assay [13] is T4, Transient receptor potential cation channel subfamily V member 3 (Homo sapiens, UniProt Q8NET8).
T4 sequence (Q8NET8 whole entry): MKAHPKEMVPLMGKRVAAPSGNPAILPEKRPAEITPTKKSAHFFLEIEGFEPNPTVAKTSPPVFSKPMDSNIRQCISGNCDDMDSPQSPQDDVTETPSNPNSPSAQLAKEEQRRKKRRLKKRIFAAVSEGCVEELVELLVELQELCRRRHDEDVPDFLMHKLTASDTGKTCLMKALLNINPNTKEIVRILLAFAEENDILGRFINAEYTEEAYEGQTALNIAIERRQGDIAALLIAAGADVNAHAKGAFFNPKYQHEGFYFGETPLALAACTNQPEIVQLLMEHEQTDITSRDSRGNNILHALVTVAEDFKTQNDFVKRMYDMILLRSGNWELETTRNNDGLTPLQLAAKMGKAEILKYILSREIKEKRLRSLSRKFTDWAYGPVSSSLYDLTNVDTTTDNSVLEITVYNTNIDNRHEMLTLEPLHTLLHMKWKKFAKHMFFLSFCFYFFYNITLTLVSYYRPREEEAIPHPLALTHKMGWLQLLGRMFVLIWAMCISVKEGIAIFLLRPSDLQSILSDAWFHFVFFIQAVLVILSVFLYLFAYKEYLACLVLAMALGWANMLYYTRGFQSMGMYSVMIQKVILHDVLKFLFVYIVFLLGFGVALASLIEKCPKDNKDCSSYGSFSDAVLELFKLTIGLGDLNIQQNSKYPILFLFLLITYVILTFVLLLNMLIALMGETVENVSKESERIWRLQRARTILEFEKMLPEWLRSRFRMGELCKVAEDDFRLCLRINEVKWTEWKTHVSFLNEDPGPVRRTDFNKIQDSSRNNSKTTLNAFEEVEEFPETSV
Nature of the assay: Antagonist activity at human TRPV3 channel. Type of assay: functional.

Assay [14] has as its target Transient receptor potential cation channel subfamily V member 1 (Homo sapiens, UniProt Q8NER1). Nature of the assay: Antagonist activity at human TRPV1 channel. Type of assay: functional.
The target in assay [15] is T3, Transient receptor potential cation channel subfamily M member 8. In words: Antagonist activity at human TRPM8 channel. Type of assay: functional.
The target in assay [16] is T2, Transient receptor potential cation channel subfamily A member 1. Nature of the assay: Antagonist activity at human TRPA1 channel expressed in HEK293 cells assessed as inhibition of allyl isothiocyanate-induced intracellular calcium influx by FLIPR. Type of assay: functional, cell-based.
For assay [17] the target is unchanged. In words: Antagonist activity at human TRPA1 channel assessed as inhibition of formalin-induced intracellular calcium influx. Type of assay: functional, cell-based.
For assay [18] the target is unchanged. Nature of the assay: Antagonist activity at human TRPA1 channel assessed as inhibition of nifedipine-induced intracellular calcium influx. Type of assay: functional, cell-based.
Assay [19] has as its target Transient receptor potential cation channel subfamily V member 4 (Homo sapiens, UniProt Q9HBA0). Nature of the assay: Antagonist activity at human TRPV4 channel. Type of assay: functional.
Assay [20] concerns the target T2, Transient receptor potential cation channel subfamily A member 1. In words: Antagonist activity at human TRPA1 channel expressed in HEK293 cells assessed as inhibition of cinnamaldehyde-induced intracellular calcium influx by FLIPR. Type of assay: functional, cell-based.

Some results are limits rather than exact numbers.

T1 sequence (Q8BLA8 whole entry): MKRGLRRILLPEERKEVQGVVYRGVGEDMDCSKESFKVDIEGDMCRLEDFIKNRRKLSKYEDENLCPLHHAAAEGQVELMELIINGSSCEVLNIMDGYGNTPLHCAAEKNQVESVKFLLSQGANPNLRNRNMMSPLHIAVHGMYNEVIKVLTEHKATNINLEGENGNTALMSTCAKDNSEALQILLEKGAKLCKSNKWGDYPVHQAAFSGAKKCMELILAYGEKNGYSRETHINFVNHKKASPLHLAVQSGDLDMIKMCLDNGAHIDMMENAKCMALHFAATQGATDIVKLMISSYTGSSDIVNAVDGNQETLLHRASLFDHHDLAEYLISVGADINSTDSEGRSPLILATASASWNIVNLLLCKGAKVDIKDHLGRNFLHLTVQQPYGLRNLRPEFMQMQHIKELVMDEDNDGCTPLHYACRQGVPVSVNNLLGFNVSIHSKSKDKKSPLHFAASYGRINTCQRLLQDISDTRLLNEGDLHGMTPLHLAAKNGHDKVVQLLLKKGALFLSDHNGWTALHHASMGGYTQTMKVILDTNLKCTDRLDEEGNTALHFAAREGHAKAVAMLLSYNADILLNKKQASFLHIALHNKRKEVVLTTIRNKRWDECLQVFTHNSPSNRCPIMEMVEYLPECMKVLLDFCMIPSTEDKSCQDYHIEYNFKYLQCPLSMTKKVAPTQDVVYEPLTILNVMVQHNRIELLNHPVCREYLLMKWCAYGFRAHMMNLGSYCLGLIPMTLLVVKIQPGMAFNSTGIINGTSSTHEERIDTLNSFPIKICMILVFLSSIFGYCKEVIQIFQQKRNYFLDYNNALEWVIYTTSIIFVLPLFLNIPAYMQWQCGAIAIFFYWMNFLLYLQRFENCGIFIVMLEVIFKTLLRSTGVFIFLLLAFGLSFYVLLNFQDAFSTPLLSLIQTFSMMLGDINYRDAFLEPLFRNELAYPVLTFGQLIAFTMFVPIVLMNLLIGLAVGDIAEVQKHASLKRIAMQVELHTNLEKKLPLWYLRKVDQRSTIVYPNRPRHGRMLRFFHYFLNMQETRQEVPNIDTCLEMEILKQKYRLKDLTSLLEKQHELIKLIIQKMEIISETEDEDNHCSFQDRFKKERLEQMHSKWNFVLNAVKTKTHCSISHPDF
Chain of Transient receptor potential cation channel subfamily V member 4 (Q9HBA0 whole entry): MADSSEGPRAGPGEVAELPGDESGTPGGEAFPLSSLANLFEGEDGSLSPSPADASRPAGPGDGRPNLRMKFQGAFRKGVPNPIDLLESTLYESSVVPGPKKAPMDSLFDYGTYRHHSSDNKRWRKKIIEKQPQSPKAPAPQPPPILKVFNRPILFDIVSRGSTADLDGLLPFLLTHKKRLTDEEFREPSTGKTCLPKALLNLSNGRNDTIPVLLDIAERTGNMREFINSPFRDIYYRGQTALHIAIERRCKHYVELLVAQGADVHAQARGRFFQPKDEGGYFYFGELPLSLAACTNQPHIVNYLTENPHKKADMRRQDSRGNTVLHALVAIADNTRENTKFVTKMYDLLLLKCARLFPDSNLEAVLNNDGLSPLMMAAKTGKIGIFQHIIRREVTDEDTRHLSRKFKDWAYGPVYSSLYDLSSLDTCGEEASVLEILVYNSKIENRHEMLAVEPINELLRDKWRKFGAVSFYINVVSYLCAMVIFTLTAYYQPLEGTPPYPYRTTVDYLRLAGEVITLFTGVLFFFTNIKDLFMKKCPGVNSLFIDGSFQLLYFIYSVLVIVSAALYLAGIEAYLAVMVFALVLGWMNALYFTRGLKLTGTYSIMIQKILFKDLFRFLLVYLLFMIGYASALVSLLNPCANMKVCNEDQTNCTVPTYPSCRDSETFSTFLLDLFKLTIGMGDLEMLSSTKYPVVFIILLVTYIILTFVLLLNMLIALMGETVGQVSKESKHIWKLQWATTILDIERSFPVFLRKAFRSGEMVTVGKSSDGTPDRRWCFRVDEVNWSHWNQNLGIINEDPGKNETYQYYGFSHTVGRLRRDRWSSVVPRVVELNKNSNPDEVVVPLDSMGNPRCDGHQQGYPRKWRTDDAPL
Chain of Transient receptor potential cation channel subfamily V member 1 (Q8NER1 whole entry): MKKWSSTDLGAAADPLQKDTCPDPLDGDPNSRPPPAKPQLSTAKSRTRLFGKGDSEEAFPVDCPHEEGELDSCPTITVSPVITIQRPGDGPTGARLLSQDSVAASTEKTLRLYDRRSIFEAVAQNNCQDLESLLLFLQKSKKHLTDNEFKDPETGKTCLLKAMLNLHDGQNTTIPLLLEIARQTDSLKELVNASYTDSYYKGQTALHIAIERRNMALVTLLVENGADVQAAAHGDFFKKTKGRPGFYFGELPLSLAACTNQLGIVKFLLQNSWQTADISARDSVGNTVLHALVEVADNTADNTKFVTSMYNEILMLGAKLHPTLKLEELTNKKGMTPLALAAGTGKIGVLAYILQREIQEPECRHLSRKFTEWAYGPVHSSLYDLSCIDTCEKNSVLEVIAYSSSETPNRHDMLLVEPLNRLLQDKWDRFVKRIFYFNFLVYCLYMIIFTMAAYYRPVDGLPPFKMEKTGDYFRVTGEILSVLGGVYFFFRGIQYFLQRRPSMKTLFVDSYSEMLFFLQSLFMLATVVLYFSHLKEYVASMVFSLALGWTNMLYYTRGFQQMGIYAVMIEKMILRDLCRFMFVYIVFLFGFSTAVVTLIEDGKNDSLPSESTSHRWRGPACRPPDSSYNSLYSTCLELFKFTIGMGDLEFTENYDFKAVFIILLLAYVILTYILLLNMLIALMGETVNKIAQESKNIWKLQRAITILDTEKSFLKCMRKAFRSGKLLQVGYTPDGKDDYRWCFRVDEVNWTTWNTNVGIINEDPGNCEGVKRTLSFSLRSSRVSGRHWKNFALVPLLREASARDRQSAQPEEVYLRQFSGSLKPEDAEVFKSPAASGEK

Usually EC50 stands for the midpoint of the concentration-response curve. For `CC1CCC(C(C)C)C(O)C1` (stereo not drawn) [MENTHOL], the concentration for a half-maximal effect (EC50) in assay [1] stood at 56 µM.
In general, IC50 refers to the midpoint of a concentration-inhibition curve. For `CC(=C\c1ccc(Cl)cc1)/C(C)=N/O` [AP18 5], the results for the 50% inhibitory concentration (IC50) in assay [2] and in [3] were 4.5 µM and 3.1 µM, respectively.
Turning to `CCC(C)c1ccc(NC(=O)Cn2cnc3c2c(=O)n(C)c(=O)n3C)cc1` (stereo not drawn), the IC50 in [4] amounted to 14.3 µM; in [6], 18.7 µM. Also, a half-maximal response in assay [5] (EC50) required 2500 µM.
For `CCCCCC(=O)/C=C/C=O`, in assay [7], the half-maximal effective concentration (EC50) came out at 1.9 µM.
Consider `O=C1NC(c2cccc([N+](=O)[O-])c2)=CCN1c1ccccc1O` [ICILLIN], for which the EC50 in assay [8] was determined as 0.06 µM; in assay [9] it was 100 µM.
For `CC1(C)C[C@H]2C=C(C=O)[C@]3(C=O)C[C@]3(C)[C@H]2C1` [ISOVELLERAL], the concentration for a half-maximal effect (EC50) in assay [9] turned out to be 0.59 µM; in assay [10], 2.58 µM; in assay [11], 130 µM.
As to `CCCCCCCC/C=C(\CCCCCCCC(=O)O)[N+](=O)[O-]` [NITROLEIC ACID], the EC50 in assay [12] stood at 1 µM.
Take `CC(C)c1ccc(NC(=O)Cn2cnc3c2c(=O)n(C)c(=O)n3C)cc1`: the IC50 in assay [13] was > 10 µM; in [14], > 20 µM; in assay [15], > 30 µM; in assay [4], 6.2 µM; in assay [16], 7.5 µM; in assay [17], 5.3 µM. In addition, the IC50 in assay [18] was 1.8 µM; in assay [19], > 10 µM; in assay [20] it was 4.9 µM. In addition, a half-maximal response in assay [5] (EC50) required 1000 µM.
